Data published in patent publication US20240254129A1, “HETEROCYCLIC COMPOUNDS AND USES THEREOF” (Kumquat Biosciences Inc., priority 2021, published 2024).

Tests used:
[1] = target: GST-tagged K-Ras mutant / His-tagged hSOS1 (Homo sapiens, UniProt P01116); experiment: HTRF assay, K-Ras mutant / SOS1 interaction; format: binding; conditions: compound nos. 401-703; read-out: IC50 against mutant Kras
Summary of the method: (§1)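 Compounds, in duplicate at six concentrations from 10 μM to 0.01 μM, are added to GST-K-Ras premixed with anti-GST-Eu(K), then His-hSOS1 with anti-6His-XL665. After roughly 10 min, FRET is measured and the emission ratio is used to derive IC50.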

[2] = target: T1, wildtype Kras / hSOS1 (Homo sapiens, UniProt P01116); experiment: HTRF assay, wildtype Kras / SOS1 interaction; format: binding; conditions: compound nos. 401-703; read-out: IC50 against wildtype Kras
T1 construct: made in house; host or cells: E. coli BL21 (DE3)
T1 sequence (P01116 1-188 isoform P01116-2): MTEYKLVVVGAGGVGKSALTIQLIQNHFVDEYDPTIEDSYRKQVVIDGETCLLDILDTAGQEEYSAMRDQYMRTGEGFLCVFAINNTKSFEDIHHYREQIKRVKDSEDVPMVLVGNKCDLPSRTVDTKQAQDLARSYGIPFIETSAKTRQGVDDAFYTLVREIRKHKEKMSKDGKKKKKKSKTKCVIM
Summary of the method: as §1

Sequence of GST-tagged K-Ras mutant / His-tagged hSOS1 (P01116 whole entry G12D, form open): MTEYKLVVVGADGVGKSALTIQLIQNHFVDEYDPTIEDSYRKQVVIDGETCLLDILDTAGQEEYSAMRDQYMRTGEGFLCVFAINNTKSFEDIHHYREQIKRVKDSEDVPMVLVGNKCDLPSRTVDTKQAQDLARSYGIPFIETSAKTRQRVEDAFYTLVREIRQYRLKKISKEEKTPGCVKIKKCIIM

In the case of `Nc1nc2c(-c3c(Cl)cc4c(N5CCCCC56CNC6)nc(OC[C@@]56CCCN5C[C@H](F)C6)nc4c3F)ccc(F)c2s1` [Compound 629, 4-(6-chloro-8-fluoro-2-(((2R,7aS)-2-fluorotetra-hydro-1H-pyrrolizin-7a(5H)-yl)methoxy)-4-(2,5-diaza-spiro[3.5]nonan-5-yl)quin-azolin-7-yl)-7-fluorobenzo-[d]thiazol-2-amine], the IC50 [1] is reported as over 500 nM and the IC50 [2] is reported as over 500 nM.
In the case of `Cc1ccc2[nH]nc(C#N)c2c1-c1c(Cl)cc2c(N3CC4CCC(C3)N4)nc(OC[C@@]34CCCN3C[C@H](F)C4)nc2c1F` [Compound 632, 4-(4-(3,8-diazabicyclo-[3.2.1]octan-3-yl)-6-chloro-8-fluoro-2-(((2R,7aS)-2-fluorotetrahydro-1H-pyrrol-izin-7a(5H)-yl)methoxy)-quin-azolin-7-yl)-5-methyl-1H-indazole-3-carbonitrile], the IC50 [1] is reported as under 500 nM and the IC50 [2] is reported as over 500 nM.
With `Nc1nc2c(-c3c(Cl)cc4c(N5CCNCC(F)(F)C5)nc(OCC56CCCN5CCC6)nc4c3F)c(F)ccc2s1` [Compound 633, 4-(6-chloro-4-(6,6-difluoro-1,4-diazepan-1-yl)-8-fluoro-2-((tetrahydro-1H-pyrrol-izin-7a(5H)-yl)methoxy)-quinazolin-7-yl)-5-fluoro-benzo[d]thiazol-2-amine] the IC50 [1] was under 500 nM and the IC50 [2] was over 500 nM.
`Nc1nc2c(-c3ccc4c(N5CC6CCC(C5)N6)nc(OC[C@@]56CCCN5C[C@H](F)C6)nc4c3F)cccc2o1` [Compound 634, 4-(4-(3,8-diazabicyclo-[3.2.1]octan-3-yl)-8-fluoro-2-(((2R,7aS)-2-fluorotetra-hydro-1H-pyrrolizin-7a(5H)-yl)methoxy)quinazolin-7-yl)benzo[d]oxazol-2-amine] showed an IC50 [1] of over 500 nM and an IC50 [2] of over 500 nM.
Molecule `Nc1nc2c(-c3cc4ncnc(N5CC6CCC(C5)N6)c4cc3Cl)ccc(F)c2s1` [Compound 635, 4-(4-(3,8-diazabicyclo-[3.2.1]octan-3-yl)-6-chloro-quinazolin-7-yl)-7-fluoro-benzo[d]thiazol-2-amine] has an IC50 [1] of over 500 nM and an IC50 [2] of over 500 nM.
For `Nc1cc(-c2c(Cl)cc3c(N4CC5CCC(C4)N5)nc(OCC45CCCN4CCC5)nc3c2F)c2ccccc2n1` [Compound 636, 4-(4-(3,8-diazabicyclo-[3.2.1]octan-3-yl)-6-chloro-8-fluoro-2-((tetrahydro-1H-pyrrolizin-7a(5H)-yl)meth-oxy)quinazolin-7-yl)quin-olin-2-amine], the IC50 [1] was over 500 nM and the IC50 [2] was over 500 nM.
`Fc1c(-c2cccc3c2CCCS3)c(Cl)cc2c(N3CC4CCC(C3)N4)nc(OC[C@@]34CCCN3C[C@H](F)C4)nc12` [Compound 637, 4-(3,8-diazabicyclo[3.2.1]-octan-3-yl)-6-chloro-8-fluoro-2-(((2R,7aS)-2-fluoro-tetrahydro-1H-pyrrolizin-7a(5H)-yl)methoxy)-7-(thio-chroman-5-yl)quinazoline] showed an IC50 [1] of over 500 nM and an IC50 [2] of over 500 nM.
In the case of `N#Cc1c(N)sc2c(F)ccc(-c3c(Cl)cc4c(N5CC6CCC(C5)N6)nc(OC[C@@]56CCCN5C[C@H](F)C6)nc4c3F)c12` [Compound 638, 4-(4-(3,8-diazabicyclo-[3.2.1]octan-3-yl)-6-chloro-8-fluoro-2-(((2R,7aS)-2-fluorotetrahydro-1H-pyrrol-izin-7a(5H)-yl)methoxy)-quinazolin-7-yl)-2-amino-7-fluorobenzo[b]thiophene-3-carbonitrile], the IC50 [1] is reported as under 500 nM and the IC50 [2] is reported as over 500 nM.
Molecule `Nc1nc2c(-c3c(Cl)cc4c(N5CC6CNCC(C5)N6)nc(OC[C@@]56CCCN5C[C@H](F)C6)nc4c3F)ccc(F)c2s1` [Compound 639, 4-(4-(3,7,9-triazabicyclo-[3.3.1]nonan-3-yl)-6-chloro-8-fluoro-2-(((2R,7aS)-2-fluorotetrahydro-1H-pyrrol-izin-7a(5H)-yl)methoxy)-quinazolin-7-yl)-7-fluoro-benzo[d]thiazol-2-amine] has an IC50 [1] of under 500 nM and an IC50 [2] of over 500 nM.
For `CNCCCN1CCCN(c2nc(OCC34CCCN3CCC4)nc3c(F)c(-c4ccc(F)c5sc(N)nc45)c(Cl)cc23)CC1` [Compound 640, 4-(6-chloro-8-fluoro-4-(4-(3-(methylamino)propyl)-1,4-diazepan-1-yl)-2-((tetrahydro-1H-pyrrolizin-7a(5H)-yl)methoxy)quin-azolin-7-yl)-7-fluorobenzo-[d]thiazol-2-amine], the IC50 [1] was under 500 nM and the IC50 [2] was over 500 nM.
With `Nc1cc(-c2ccc3c(N4CC5CCC(C4)N5)nc(OCC45CCCN4CCC5)nc3c2F)c2ccccc2n1` [Compound 641, 4-(4-(3,8-diazabicyclo-[3.2.1]octan-3-yl)-8-fluoro-2-((tetrahydro-1H-pyrrol-izin-7a(5H)-yl)methoxy)-quinazolin-7-yl)quinolin-2-amine] the IC50 [1] was over 500 nM and the IC50 [2] was over 500 nM.
Work on `CN1CCC[C@H]1COc1nc(N2CCC(F)C(F)CC2)c2cc(Cl)c(-c3cccc4sc(N)nc34)c(F)c2n1` (stereo partly drawn) [Compound 642, 4-(6-chloro-4-(4,5-difluoro-azepan-1-yl)-8-fluoro-2-(((S)-1-methylpyrrolidin-2-yl)methoxy)quinazolin-7-yl)-benzo[d]thiazol-2-amine] yielded an IC50 [1] of under 500 nM and an IC50 [2] of over 500 nM.
For `N#Cc1c(N)sc2c(F)ccc(-c3c(Cl)cc4c(N5C[C@H]6CC[C@@H](C5)N6CC5COC5)nc(OC[C@@]56CCCN5C[C@H](F)C6)nc4c3F)c12` [Compound 643, 2-amino-4-(6-chloro-8-fluoro-2-(((2R,7aS)-2-fluorotetrahydro-1H-pyrrolizin-7a(5H)-yl)-methoxy)-4-((1R,5S)-8-(oxetan-3-yl-methyl)-3,8-diazabicyclo[3.2.1]-octan-3-yl)quinazolin-7-yl)-7-fluorobenzo[b]-thiophene-3-carbonitrile], the IC50 [1] was under 500 nM and the IC50 [2] was over 500 nM.
With `CS(=O)(=O)N1CCCN(c2nc(OC[C@@]34CCCN3C[C@H](F)C4)nc3c(F)c(-c4ccc(F)c5sc(N)nc45)c(Cl)cc23)CC1` [Compound 644, 4-(6-chloro-8-fluoro-2-(((2R,7aS)-2-fluorotetra-hydro-1H-pyrrolizin-7a(5H)-yl)methoxy)-4-(4-(methylsulfonyl)-1,4-diazepan-1-yl)quinazolin-7-yl)-7-fluorobenzo[d]thia-zol-2-amine] the IC50 [1] was under 500 nM and the IC50 [2] was over 500 nM.
`Cc1nc(N2CCCCCC2)c2cc(Cl)c(-c3cccc4sc(N)nc34)cc2n1` [Compound 645, 4-(4-(azepan-1-yl)-6-chloro-2-methylquinazolin-7-yl)-benzo[d]thiazol-2-amine] showed an IC50 [1] of over 500 nM and an IC50 [2] of over 500 nM.
`CCCC1CCCN(c2nc(OC[C@@H]3CCCN3C)nc3c(F)c(-c4cccc5sc(N)nc45)c(Cl)cc23)CC1` (stereo partly drawn) [Compound 646, 4-(6-chloro-8-fluoro-2-(((S)-1-methylpyrrolidin-2-yl)-methoxy)-4-(4-propylaze-pan-1-yl)quinazolin-7-yl)-benzo[d]thiazol-2-amine] was tested, and the IC50 [1] was over 500 nM and the IC50 [2] was over 500 nM.
`CN(CCC1CCC[N+]1(C)C)c1nc(N2CC3CCC(C2)N3)c2ccc(-c3ccc(F)c4sc(N)nc34)nc2n1` (stereo not shown) [Compound 647, 4-(4-(3,8-diazabicyclo-[3.2.1]octan-3-yl)-2-((2-(1,1-dimethyl-114-pyrrol-idin-2-yl)ethyl)(methyl)-amino)pyrido[2,3-d]pyr-imidin-7-yl)-7-fluoroben-zo[d]thiazol-2-amine] was tested, and the IC50 [1] was over 500 nM and the IC50 [2] was over 500 nM.
In the case of `Cc1cc(N)nc(-c2ccc3c(N4CC5CCC(C4)N5)nc(OC[C@@]45CCCN4C[C@H](F)C5)nc3c2F)c1C1CC1` [Compound 648, 6-(4-(3,8-diazabicyclo-[3.2.1]octan-3-yl)-8-fluoro-2-(((2R,7aS)-2-fluorotetra-hydro-1H-pyrrolizin-7a(5H)-yl)methoxy)quinazolin-7-yl)-5-cyclopropyl-4-methyl-pyridin-2-amine], the IC50 [1] is reported as over 500 nM and the IC50 [2] is reported as over 500 nM.
For `Nc1nc2c(-c3c(Cl)cc4c(N5CCN(Cc6cncnc6)CC(F)(F)C5)nc(OC[C@@]56CCCN5C[C@H](F)C6)nc4c3F)ccc(F)c2s1` [Compound 649, 4-(6-chloro-4-(6,6-difluoro-4-(pyrimidin-5-ylmethyl)-1,4-diazepan-1-yl)-8-fluoro-2-(((2R,7aS)-2-fluorotetra-hydro-1H-pyrrolizin-7a(5H)-yl)methoxy)quinazolin-7-yl)-7-fluorobenzo[d]thiazol-2-amine], the IC50 [1] was under 500 nM and the IC50 [2] was over 500 nM.
With `Oc1ccc2ccc(-c3c(Cl)cc4c(N5CC6CCC(C5)N6)nc(OCC56CCCN5CCC6)nc4c3F)cc2c1` [Compound 650, 7-(4-(3,8-diazabicyclo-[3.2.1]octan-3-yl)-6-chloro-8-fluoro-2-((tetrahydro-1H-pyrrolizin-7a(5H)-yl)meth-oxy)quinazolin-7-yl)naph-thalen-2-ol] the IC50 [1] was over 500 nM and the IC50 [2] was over 500 nM.
For `CN1CCC[C@H]1COc1nc(N2CCCC(n3ccnc3)CC2)c2cc(Cl)c(-c3cccc4sc(N)nc34)c(F)c2n1` (stereo partly drawn) [Compound 651, 4-(4-(4-(1H-imidazol-1-yl)-azepan-1-yl)-6-chloro-8-fluoro-2-(((S)-1-methyl-pyrrolidin-2-yl)methoxy)-quinazolin-7-yl)benzo[d]-thiazol-2-amine], the IC50 [1] was under 500 nM and the IC50 [2] was over 500 nM.
Molecule `Nc1cccc(-c2ccc(O)cc2-c2c(Cl)cc3c(N4CC5CCC(C4)N5)nc(OCC45CCCN4CCC5)nc3c2F)c1` [Compound 652, 2-(4-(3,8-diazabicyclo-[3.2.1]octan-3-yl)-6-chloro-8-fluoro-2-((tetrahydro-1H-pyrrolizin-7a(5H)-yl)meth-oxy)quinazolin-7-yl)-3′-amino-[1,1′-biphenyl]-4-ol] has an IC50 [1] of over 500 nM and an IC50 [2] of over 500 nM.
Molecule `Nc1nc2c(-c3c(Cl)cc4c(N5CC6CCC(C5)N6)nc(OCC5(CN6CCCC6)CC5)nc4c3F)cccc2o1` [Compound 653, 4-(4-(3,8-diazabicyclo-[3.2.1]octan-3-yl)-6-chloro-8-fluoro-2-((1-(pyrrolidin-1-ylmethyl)cyclopropyl)meth-oxy)quinazolin-7-yl)benzo-[d]oxazol-2-amine] has an IC50 [1] of under 500 nM and an IC50 [2] of over 500 nM.
